From article PMC11266321 (EJNMMI Radiopharmacy and Chemistry, 2024)
Where “and” joins values, the source holds several entries; their conditions need not be identical. Equal values may be shown once.

Assay: Tissue distribution of radioactivity in mice
Format: in vivo, mouse
Conditions: mean ± SD n = 4
Protocol: [^11C]MMP (8.1 MBq/17 pmol) was injected intravenously into 8-week-old male ddY mice (37.8–42.4 g). The tracer-injected mice were housed individually in filter-paper-lined animal-rearing cages until the time of euthanasia. Mice were euthanized by cervical dislocation at 1, 5, 15, 30, 60, and 90 min after injection (n = 4 each). Blood was collected by heart puncture, and the tissues were harvested. Radioactivity excreted into urine was recovered from the cage floor and by cystocentesis from the urinary bladder. The samples were measured for ^11C radioactivity with an auto-gamma counter (Hidex-AMG, Turku, Finland) and weighed. Tissue uptake of ^11C was expressed as the percentage of injected dose per organ (%ID/organ) or the percentage of injected dose per gram of tissue (%ID/g). The tissue distribution data were extrapolated to an adult male phantom using the %kg/g method (Blau [1975]). The radiation absorbed dose and effective dose for human adults were estimated using OLINDA/EXM software (Vanderbilt University, Nashville, TN) (Stabin et al. [2005]). Effective dose was estimated using the risk-weighting factor of ICRP Publication 103 (ICRP [2007]).

Structure (SMILES): CC(C)NC(C)Cc1ccc([11CH3])cc1 (centres unmarked) [[^11C]MMP, N-isopropyl-4-[^11C]methylamphetamine]
- Injected dose/organ (%), Bladder (15 min after i.v. injection): 0.60 ± 0.32 %ID/organ
- Injected dose/organ (%), Bladder + urine (15 min after i.v. injection): 13.64 ± 2.31 %ID/organ
- Injected dose/organ (%), Brain (15 min after i.v. injection): 2.12 ± 0.06 %ID/organ
- Injected dose/organ (%), Heart (15 min after i.v. injection): 0.33 ± 0.02 %ID/organ
- Injected dose/organ (%), Kidney (15 min after i.v. injection): 7.47 ± 1.09 %ID/organ
- Injected dose/organ (%), Large intestine (15 min after i.v. injection): 2.13 ± 1.04 %ID/organ
- Injected dose/organ (%), Liver (15 min after i.v. injection): 15 %ID/organ and 14.98 ± 2.48 %ID/organ
- Injected dose/organ (%), Lung (15 min after i.v. injection): 1.47 ± 0.10 %ID/organ
- Injected dose/organ (%), Pancreas (15 min after i.v. injection): 1.74 ± 0.24 %ID/organ
- Injected dose/organ (%), Small intestine (15 min after i.v. injection): 6.13 ± 1.74 %ID/organ
- Injected dose/organ (%), Spleen (15 min after i.v. injection): 0.64 ± 0.12 %ID/organ
- Injected dose/organ (%), Stomach (15 min after i.v. injection): 2.46 ± 0.69 %ID/organ
- Injected dose/organ (%), Testis (15 min after i.v. injection): 0.45 ± 0.05 %ID/organ
- Injected dose/organ (%), Urine (15 min after i.v. injection): 13.03 ± 2.51 %ID/organ
- Injected dose/g tissue (%), Blood (30 min after i.v. injection): 0.62 ± 0.21 %ID/g
- Injected dose/g tissue (%), Bone (30 min after i.v. injection): 0.76 ± 0.26 %ID/g
- Injected dose/g tissue (%), Brain (30 min after i.v. injection): 2.63 ± 0.22 %ID/g
- Injected dose/g tissue (%), Heart (30 min after i.v. injection): 1.16 ± 0.22 %ID/g
- Injected dose/g tissue (%), Kidney (30 min after i.v. injection): 7.08 ± 1.91 %ID/g
- Injected dose/g tissue (%), Large intestine (30 min after i.v. injection): 1.22 ± 0.63 %ID/g
- Injected dose/g tissue (%), Liver (30 min after i.v. injection): 5.46 ± 0.97 %ID/g
- Injected dose/g tissue (%), Lung (30 min after i.v. injection): 3.68 ± 0.50 %ID/g
- Injected dose/g tissue (%), Muscle (30 min after i.v. injection): 0.78 ± 0.17 %ID/g
- Injected dose/g tissue (%), Pancreas (30 min after i.v. injection): 4.58 ± 0.52 %ID/g
- Injected dose/g tissue (%), Small intestine (30 min after i.v. injection): 2.14 ± 0.67 %ID/g
- Injected dose/g tissue (%), Spleen (30 min after i.v. injection): 2.48 ± 0.45 %ID/g
- Injected dose/g tissue (%), Stomach (30 min after i.v. injection): 2.69 ± 0.26 %ID/g
- Injected dose/g tissue (%), Testis (30 min after i.v. injection): 1.69 ± 0.36 %ID/g
- Injected dose/organ (%), Bladder (30 min after i.v. injection): 2.40 ± 1.59 %ID/organ
- Injected dose/organ (%), Bladder + urine (30 min after i.v. injection): 32.99 ± 3.90 %ID/organ
- Injected dose/organ (%), Brain (30 min after i.v. injection): 1.09 ± 0.11 %ID/organ
- Injected dose/organ (%), Heart (30 min after i.v. injection): 0.21 ± 0.01 %ID/organ
- Injected dose/organ (%), Kidney (30 min after i.v. injection): 4.79 ± 1.06 %ID/organ
- Injected dose/organ (%), Large intestine (30 min after i.v. injection): 1.59 ± 0.61 %ID/organ
- Injected dose/organ (%), Liver (30 min after i.v. injection): 12.97 ± 1.05 %ID/organ
- Injected dose/organ (%), Lung (30 min after i.v. injection): 0.79 ± 0.09 %ID/organ
- Injected dose/organ (%), Pancreas (30 min after i.v. injection): 0.83 ± 0.03 %ID/organ
- Injected dose/organ (%), Small intestine (30 min after i.v. injection): 3.66 ± 0.59 %ID/organ
- Injected dose/organ (%), Spleen (30 min after i.v. injection): 0.35 ± 0.07 %ID/organ
- Injected dose/organ (%), Stomach (30 min after i.v. injection): 1.76 ± 0.50 %ID/organ
- Injected dose/organ (%), Testis (30 min after i.v. injection): 0.52 ± 0.11 %ID/organ
- Injected dose/organ (%), Urine (30 min after i.v. injection): 30.59 ± 5.33 %ID/organ
- Injected dose/g tissue (%), Blood (60 min after i.v. injection): 0.56 ± 0.23 %ID/g
- Injected dose/g tissue (%), Bone (60 min after i.v. injection): 0.49 ± 0.04 %ID/g
- Injected dose/g tissue (%), Brain (60 min after i.v. injection): 1.01 ± 0.09 %ID/g
- Injected dose/g tissue (%), Heart (60 min after i.v. injection): 0.56 ± 0.22 %ID/g
- Injected dose/g tissue (%), Kidney (60 min after i.v. injection): 3.73 ± 3.22 %ID/g
- Injected dose/g tissue (%), Large intestine (60 min after i.v. injection): 0.61 ± 0.27 %ID/g
- Injected dose/g tissue (%), Liver (60 min after i.v. injection): 2.93 ± 0.85 %ID/g
- Injected dose/g tissue (%), Lung (60 min after i.v. injection): 1.73 ± 0.45 %ID/g
- Injected dose/g tissue (%), Muscle (60 min after i.v. injection): 0.51 ± 0.24 %ID/g
- Injected dose/g tissue (%), Pancreas (60 min after i.v. injection): 2.52 ± 0.24 %ID/g
- Injected dose/g tissue (%), Small intestine (60 min after i.v. injection): 1.88 ± 0.59 %ID/g
- Injected dose/g tissue (%), Spleen (60 min after i.v. injection): 1.47 ± 0.44 %ID/g
- Injected dose/g tissue (%), Stomach (60 min after i.v. injection): 1.27 ± 0.89 %ID/g
- Injected dose/g tissue (%), Testis (60 min after i.v. injection): 1.85 ± 0.35 %ID/g
- Injected dose/organ (%), Bladder (60 min after i.v. injection): 0.23 ± 0.12 %ID/organ
- Injected dose/organ (%), Bladder + urine (60 min after i.v. injection): 53.94 ± 7.66 %ID/organ
- Injected dose/organ (%), Brain (60 min after i.v. injection): 0.41 ± 0.06 %ID/organ
- Injected dose/organ (%), Heart (60 min after i.v. injection): 0.11 ± 0.03 %ID/organ
- Injected dose/organ (%), Kidney (60 min after i.v. injection): 2.37 ± 2.03 %ID/organ
- Injected dose/organ (%), Large intestine (60 min after i.v. injection): 0.85 ± 0.51 %ID/organ
- Injected dose/organ (%), Liver (60 min after i.v. injection): 6.29 ± 1.96 %ID/organ
- Injected dose/organ (%), Lung (60 min after i.v. injection): 0.36 ± 0.10 %ID/organ
- Injected dose/organ (%), Pancreas (60 min after i.v. injection): 0.47 ± 0.04 %ID/organ
- Injected dose/organ (%), Small intestine (60 min after i.v. injection): 3.41 ± 0.77 %ID/organ
- Injected dose/organ (%), Spleen (60 min after i.v. injection): 0.17 ± 0.02 %ID/organ
- Injected dose/organ (%), Stomach (60 min after i.v. injection): 0.82 ± 0.44 %ID/organ
- Injected dose/organ (%), Testis (60 min after i.v. injection): 0.53 ± 0.15 %ID/organ
- Injected dose/organ (%), Urine (60 min after i.v. injection): 53.71 ± 7.68 %ID/organ
- Injected dose/g tissue (%), Blood (90 min after i.v. injection): 0.23 ± 0.09 %ID/g
- Injected dose/g tissue (%), Bone (90 min after i.v. injection): 0.59 ± 0.14 %ID/g
- Injected dose/g tissue (%), Brain (90 min after i.v. injection): 0.45 ± 0.08 %ID/g
- Injected dose/g tissue (%), Heart (90 min after i.v. injection): 0.35 ± 0.14 %ID/g
- Injected dose/g tissue (%), Kidney (90 min after i.v. injection): 6.64 ± 3.76 %ID/g
- Injected dose/g tissue (%), Large intestine (90 min after i.v. injection): 0.61 ± 0.16 %ID/g
- Injected dose/g tissue (%), Liver (90 min after i.v. injection): 1.94 ± 0.88 %ID/g
- Injected dose/g tissue (%), Lung (90 min after i.v. injection): 1.03 ± 0.13 %ID/g
- Injected dose/g tissue (%), Muscle (90 min after i.v. injection): 0.42 ± 0.18 %ID/g
- Injected dose/g tissue (%), Pancreas (90 min after i.v. injection): 1.25 ± 0.34 %ID/g
- Injected dose/g tissue (%), Small intestine (90 min after i.v. injection): 1.34 ± 1.24 %ID/g
- Injected dose/g tissue (%), Spleen (90 min after i.v. injection): 0.56 ± 0.17 %ID/g
- Injected dose/g tissue (%), Stomach (90 min after i.v. injection): 1.52 ± 1.28 %ID/g
- Injected dose/g tissue (%), Testis (90 min after i.v. injection): 1.47 ± 0.44 %ID/g
- Injected dose/organ (%), Bladder (90 min after i.v. injection): 2.32 ± 1.75 %ID/organ
- Injected dose/organ (%), Bladder + urine (90 min after i.v. injection): 58 %ID/organ and 57.89 ± 3.18 %ID/organ
- Injected dose/organ (%), Brain (90 min after i.v. injection): 0.21 ± 0.07 %ID/organ
- Injected dose/organ (%), Heart (90 min after i.v. injection): 0.07 ± 0.03 %ID/organ
- Injected dose/organ (%), Kidney (90 min after i.v. injection): 4.56 ± 2.94 %ID/organ
- Injected dose/organ (%), Large intestine (90 min after i.v. injection): 0.77 ± 0.16 %ID/organ
- Injected dose/organ (%), Liver (90 min after i.v. injection): 4.85 ± 2.18 %ID/organ
- Injected dose/organ (%), Lung (90 min after i.v. injection): 0.23 ± 0.03 %ID/organ
- Injected dose/organ (%), Pancreas (90 min after i.v. injection): 0.25 ± 0.05 %ID/organ
- Injected dose/organ (%), Small intestine (90 min after i.v. injection): 2.47 ± 2.43 %ID/organ
- Injected dose/organ (%), Spleen (90 min after i.v. injection): 0.08 ± 0.03 %ID/organ
- Injected dose/organ (%), Stomach (90 min after i.v. injection): 0.84 ± 0.56 %ID/organ
- Injected dose/organ (%), Testis (90 min after i.v. injection): 0.49 ± 0.17 %ID/organ
- Injected dose/organ (%), Urine (90 min after i.v. injection): 55.57 ± 3.04 %ID/organ
